Experiments:
[1] = 101.33 kPa, Liquid; for mass density: Vibrating tube method
[2] = molar heat capacity at constant pressure; conditions: 298.15 K; 101.33 kPa; Liquid; Drop calorimetry
[3] = refractive index (Na D-line) (dimensionless); conditions: 101.33 kPa, Liquid, Standard Abbe refractometry

CCn1cc[n+](C)c1.N#C[S-] [1-ethyl-3-methylimidazolium thiocyanate]
Conditions	mass density, [1] [kg/m3]	refractive index, [3]	viscosity, [1] [mPa·s]
278.15 K	1129.7	–	54.57
283.15 K	1126.5	–	43.51
288.15 K	1123.3	–	35.36
293.15 K	1120.1	–	29.21
298.15 K	1117	–	24.5
303.15 K	1113.9	–	20.79
308.15 K	1110.8	–	17.86
313.15 K	1107.8	–	15.49
318.15 K	1104.8	–	13.56
323.15 K	1101.8	–	11.97
328.15 K	1098.8	–	10.64
332.55 K	–	1.53909	–
333.15 K	1095.9	–	9.528
334.52 K	–	1.5385	–
336.48 K	–	1.53794	–
338.15 K	1093	–	8.582
338.44 K	–	1.53739	–
340.41 K	–	1.53682	–
342.37 K	–	1.53636	–
343.15 K	1090.1	–	7.773
348.15 K	1087.2	–	7.076
353.15 K	1084.3	–	6.472
358.15 K	1081.5	–	5.945
363.15 K	1078.7	–	5.485

Conditions	molar heat capacity at constant pressure [J/K/mol]
[2]	281.45

CC(=O)[O-].CCn1cc[n+](C)c1 [1-ethyl-3-methylimidazolium acetate]
Conditions	mass density, [1] [kg/m3]	refractive index, [3]	viscosity, [1] [mPa·s]
278.15 K	1112.4	–	723.62
283.15 K	1108.9	–	451.35
288.15 K	1105.6	–	295.7
288.37 K	–	1.50371	–
293.15 K	1102.4	–	202.29
293.28 K	–	1.50233	–
298.15 K	1099.3	–	143.61
298.19 K	–	1.50091	–
303.1 K	–	1.49949	–
303.15 K	1096.2	–	105.3
308.01 K	–	1.49807	–
308.15 K	1093.6	–	79.32
312.91 K	–	1.49666	–
313.15 K	1090	–	61.33
318.15 K	1087	–	48.41
323.15 K	1084	–	38.95
328.15 K	1081	–	31.87
333.15 K	1078	–	26.47
338.15 K	1075	–	22.27
343.15 K	1072.1	–	18.96
348.15 K	1069.2	–	16.31
353.15 K	1066.3	–	14.16
358.15 K	1063.4	–	12.41
363.15 K	1060.6	–	10.95

Conditions	molar heat capacity at constant pressure [J/K/mol]
[2]	321.9

CCn1cc[n+](C)c1.CS(=O)(=O)[O-] [1-ethyl-3-methylimidazolium methanesulfonate]
Conditions	mass density, [1] [kg/m3]	refractive index, [3]	viscosity, [1] [mPa·s]
278.15 K	1257.1	–	805.33
283.15 K	1253.3	–	505.92
288.15 K	1249.5	–	336.04
288.37 K	–	1.49823	–
293.15 K	1245.9	–	232.44
293.28 K	–	1.49682	–
298.15 K	1242.4	–	166.59
298.19 K	–	1.49542	–
303.1 K	–	1.49399	–
303.15 K	1239	–	123.14
308.01 K	–	1.49254	–
308.15 K	1235.6	–	93.48
312.91 K	–	1.49114	–
313.15 K	1232.2	–	72.64
318.15 K	1228.8	–	57.62
323.15 K	1225.5	–	46.54
328.15 K	1222.2	–	38.2
333.15 K	1218.9	–	31.81
338.15 K	1215.6	–	26.84
343.15 K	1212.3	–	22.9
348.15 K	1209.1	–	19.75
353.15 K	1205.9	–	17.19
358.15 K	1202.8	–	15.08
363.15 K	1199.7	–	13.33

Conditions	molar heat capacity at constant pressure [J/K/mol]
[2]	345.52

CCn1cc[n+](C)c1.O=S(=O)([O-])C(F)(F)F [1-ethyl-3-methylimidazolium trifluoromethanesulfonate]
Conditions	mass density, [1] [kg/m3]	refractive index, [3]	viscosity, [1] [mPa·s]
278.15 K	1403.3	–	99.83
283.15 K	1398.9	–	78.93
288.15 K	1394.5	–	63.51
288.37 K	–	1.43572	–
293.15 K	1390.2	–	51.87
293.28 K	–	1.43432	–
298.15 K	1385.9	–	42.94
298.19 K	–	1.43296	–
303.1 K	–	1.43159	–
303.15 K	1381.6	–	35.98
308.01 K	–	1.43025	–
308.15 K	1377.3	–	30.48
312.91 K	–	1.42886	–
313.15 K	1373.1	–	26.09
318.15 K	1368.9	–	22.53
323.15 K	1364.8	–	19.62
328.15 K	1360.6	–	17.21
333.15 K	1356.5	–	15.21
338.15 K	1352.5	–	13.52
343.15 K	1348.4	–	12.1
348.15 K	1344.4	–	10.88
353.15 K	1340.4	–	9.845
358.15 K	1336.4	–	8.948
363.15 K	1332.5	–	8.169

Conditions	molar heat capacity at constant pressure [J/K/mol]
[2]	362.8

Reference: the NIST ThermoML archive (doi:10.1021/je200790q)
